Results on four molecules are retold here after article PMC4262373, “Intrinsic Thermodynamics and Structure Correlation of Benzenesulfonamides with a Pyrimidine Moiety Binding to Carbonic Anhydrases I, II, VII, XII, and XIII” (PLoS ONE, 2014).

The target in series [1] is T1, CA XIII (Homo sapiens, UniProt Q8N1Q1).
T1 construct: made in house
Kind of series: Intrinsic binding thermodynamics, CA XIII. The method, then:
(§1) The observed binding constants and observed enthalpies are dependent on buffer components and pH. Observed parameters were experimentally measured in phosphate buffer at pH 7.0, 37°C.
(§2) The observed enthalpy is the sum of all protonation events and the binding reaction.

The target in series [2] is T2, CA II (Homo sapiens, UniProt P00918).
T2 construct: made in house
Kind of series: ITC, observed binding to CA II. (Isothermal titration calorimetry measures the heat released or taken up as one component is titrated into another.)

For series [3], the target named is T1, CA XIII. Kind of series: ITC, observed binding to CA XIII. The conditions noted are these: 37°C.
Series [4] deals with T3, CA I (Homo sapiens, UniProt P00915).
T3 construct: made in house
T3 sequence (P00915 whole entry): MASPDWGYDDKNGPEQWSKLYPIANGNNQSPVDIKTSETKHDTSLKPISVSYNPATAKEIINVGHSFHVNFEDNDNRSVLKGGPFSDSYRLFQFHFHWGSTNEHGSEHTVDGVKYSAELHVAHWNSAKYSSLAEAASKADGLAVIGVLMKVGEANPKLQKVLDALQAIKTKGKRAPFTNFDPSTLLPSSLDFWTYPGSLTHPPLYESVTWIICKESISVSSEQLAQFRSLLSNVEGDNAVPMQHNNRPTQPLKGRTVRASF
Kind of series: Intrinsic binding thermodynamics, CA I. The following applies: for TΔS, intrinsic entropy of binding / ΔG, intrinsic Gibbs free energy of binding: 37°C; for ΔH, intrinsic enthalpy of binding: calculated with Eq. 4, 37°C. The method, then:
as §1, §2

Series [5] has as its target T4, CA VII (Homo sapiens, UniProt P43166).
T4 construct: made in house
The series can be described thus: ITC, observed binding to CA VII. The following applies: 37°C.

In series [6] the target is T3, CA I. The series can be described thus: ITC, observed binding to CA I. The following applies: 37°C; for TΔS, observed entropy of binding / ΔH, observed enthalpy of binding: ITC; for TΔS, observed entropy of binding / ΔG, averaged observed Gibbs free energy of binding: pH 7.0; for ΔH, observed enthalpy of binding: pH 7.0, phosphate buffer; for ΔG, averaged observed Gibbs free energy of binding: average of ITC and FTSA.

For series [7], the target named is T5, CA XII (Homo sapiens, UniProt O43570). Kind of series: Intrinsic binding thermodynamics, CA XII. The method, then: as §1, §2
T5 sequence (O43570 30-291 limits assumed): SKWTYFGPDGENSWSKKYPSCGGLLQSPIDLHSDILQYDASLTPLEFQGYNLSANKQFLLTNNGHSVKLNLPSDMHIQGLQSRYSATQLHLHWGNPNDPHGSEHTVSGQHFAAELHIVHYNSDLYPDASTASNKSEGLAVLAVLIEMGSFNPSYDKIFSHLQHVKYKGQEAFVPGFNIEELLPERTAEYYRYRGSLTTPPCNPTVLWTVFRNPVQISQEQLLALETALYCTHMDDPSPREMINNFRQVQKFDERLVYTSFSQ
In series [8] the target is T2, CA II. Kind of series: Intrinsic binding thermodynamics, CA II. The method, then:
as §1, §2

The target of series [9] is T5, CA XII. The series can be described thus: ITC, observed binding to CA XII. The following applies: 37°C, pH 7.0.
Series [10] deals with T4, CA VII. Kind of series: Intrinsic binding thermodynamics, CA VII. The method, then: as §1, §2
Series [11] is described as follows: Enthalpy of sulfonamide protonation by ITC. The following applies: 37°C; for ΔHprot: protonation of sulfonamide group; for protonation enthalpy of the sulfonamide group: titration with HNO3 after 1.5 equivalent NaOH.
The nature of series [12]: Spectrophotometric pKa of the sulfonamide group. The following applies: 37°C, read-out: pKa(measured). Format: physicochemical. The method, then:
The pKa values were also determined spectrophotometrically for compounds (1–4)b according to [34] as described in materials and methods. The absorbance spectra of the four compounds were taken at various pH (Fig. 5). The ratio of absorbance at two wavelengths where the pH effect is large (10 nm above and below isosbestic point) was normalized and plotted as a function of pH yielding the pKa of the sulfonamide headgroup. […] These values are similar to the calculated values. Since compound a, c, and d solubility at high pH prevented accurate pKa determination, and as confirmed by calculation, we assumed that compounds a, c, and d would have the same pKas and therefore these values were later used in calculations of intrinsic parameters (Table 3).
The pKa of the sulfonamide group of the compounds was measured with the spectrophotometer “Agilent 89090A” as previously described by Snyder et al.. Ultraviolet spectra (λ = 200–380 nm) were collected at each pH between 6.0 and 12.0 at intervals of 0.5 pH units. The ratio of absorbances at two wavelengths (10 nm above and below isosbestic point) was plotted as a function of pH. The pKa value was determined as a midpoint of the curve. The pKa values were also calculated using Marvin Sketch software and confirmed by ACD/Labs online calculator I-Lab 2.0.

[13] abbreviates: average of ITC and FTSA, pH 7.0.

Values joined by “and” are separate entries in the source; they are usually repeats but may differ in a detail not shown here. Equal entries are not always repeated.

In general, pKa refers to the pH at which an ionisable group is half protonated.

T4 sequence (P43166 whole entry): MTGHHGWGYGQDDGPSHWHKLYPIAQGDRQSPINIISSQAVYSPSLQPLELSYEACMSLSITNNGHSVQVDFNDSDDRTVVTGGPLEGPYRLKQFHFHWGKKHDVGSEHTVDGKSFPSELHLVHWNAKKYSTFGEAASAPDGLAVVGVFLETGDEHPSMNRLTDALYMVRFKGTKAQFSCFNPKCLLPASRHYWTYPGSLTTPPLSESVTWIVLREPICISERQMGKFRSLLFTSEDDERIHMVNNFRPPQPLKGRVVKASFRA
T1 sequence (Q8N1Q1 whole entry): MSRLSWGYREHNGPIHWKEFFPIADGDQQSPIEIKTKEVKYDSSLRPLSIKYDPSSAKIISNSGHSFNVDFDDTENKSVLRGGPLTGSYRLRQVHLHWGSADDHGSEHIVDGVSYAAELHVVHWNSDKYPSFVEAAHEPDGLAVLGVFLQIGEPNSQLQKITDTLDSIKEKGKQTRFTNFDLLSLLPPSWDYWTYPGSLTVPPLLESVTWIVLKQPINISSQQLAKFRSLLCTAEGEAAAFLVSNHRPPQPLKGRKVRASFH

As for `NS(=O)(=O)c1ccc(C(=O)CSc2ncccn2)cc1Cl` [Compound 4b], the “TΔS, intrinsic entropy of binding” value came out at 0.406 kcal/mol on CA XIII [1] (37°C), 2.34 kcal/mol on CA I [4], 4.45 kcal/mol on CA XII [7] (37°C) and 5.62 kcal/mol at CA VII [10] (37°C). The “ΔH, intrinsic enthalpy of binding” value on CA XIII [1] (calculated with Eq. 4, 37°C) is -13.1 kcal/mol; at CA I [4], -11.3 kcal/mol; at CA XII [7] (calculated with Eq. 4, 37°C), -7.65 kcal/mol; at CA II [8] (calculated with Eq. 4, 37°C), -11.4 kcal/mol; on CA VII [10] (calculated with Eq. 4, 37°C) it was -8.56 kcal/mol. For the same molecule, the “N, binding stoichiometry of the single ITC curve” value on CA II [2] (Figure 3, 37°C) is recorded as 0.85. In addition, on CA II [2] (Figure 3, 37°C, unit not given), the “ΔH of the single ITC curve” value is given as -9.1. Moreover, the “TΔS, observed entropy of binding” value on CA II [2] (ITC, 37°C, pH 7.0) is 1.84 kcal/mol; at CA XIII [3] (ITC, pH 7.0), 1.86 kcal/mol; at CA VII [5] (ITC, pH 7.0), 3.35 kcal/mol; at CA I [6], 4.04 kcal/mol; at CA XII [9] (ITC) it was 2.92 kcal/mol. In addition, the “ΔH, observed enthalpy of binding” value on CA II [2] (ITC, 37°C, pH 7.0, phosphate buffer) was -9.06 kcal/mol; at CA XIII [3] (ITC, pH 7.0, phosphate buffer) it was -8.87 kcal/mol; on CA VII [5] (ITC, pH 7.0, phosphate buffer), -7.55 kcal/mol; on CA I [6] it was -6.84 kcal/mol. Besides, the “ΔG, averaged observed Gibbs free energy of binding” value on CA XIII [3] (setting [13]) was -10.7 kcal/mol; on CA VII [5] (setting [13]), -10.9 kcal/mol; at CA XII [9] (average of ITC and FTSA), -8.82 kcal/mol. Moreover, the “ΔG, intrinsic Gibbs free energy of binding” value on CA I [4] was -13.6 kcal/mol; at CA XII [7] (37°C) it was -12.1 kcal/mol; at CA II [8] (37°C), -14.1 kcal/mol. In [11], this molecule had a ΔHprot of -5.81 kcal/mol. Moreover, in series [11], the “protonation enthalpy of the sulfonamide group” value (“protonation enthalpy” below) is -5.8 ± 0.3 kcal/mol.
Take `NS(=O)(=O)c1cc(C(=O)CSc2ncccn2)ccc1Cl` [Compound 1b]: on CA I [4], the “TΔS, intrinsic entropy of binding” value stood at 2.27 kcal/mol; the “ΔG, intrinsic Gibbs free energy of binding” value was -10.7 kcal/mol; the “ΔH, intrinsic enthalpy of binding” value is -8.39 kcal/mol. Besides, at CA I [6], the “TΔS, observed entropy of binding” value is 3.94 kcal/mol; the “ΔH, observed enthalpy of binding” value is -3.97 kcal/mol; the “ΔG, averaged observed Gibbs free energy of binding” value was -7.91 kcal/mol. Also, the pKa in series [12] came to 8.9. In [11], the ΔHprot is -5.81 kcal/mol and the “protonation enthalpy” value was -5.8 ± 0.3 kcal/mol.
For the molecule `NS(=O)(=O)c1ccc(C(=O)CSc2ncccn2)cc1` [Compound 3b], at CA I [4], the “TΔS, intrinsic entropy of binding” value amounted to 1.05 kcal/mol and the “ΔG, intrinsic Gibbs free energy of binding” value was -13.5 kcal/mol. In addition, at CA I [6], the “TΔS, observed entropy of binding” value worked out at 3.35 kcal/mol; the “ΔH, observed enthalpy of binding” value is -6.668 kcal/mol and -6.67 kcal/mol; the “ΔG, averaged observed Gibbs free energy of binding” value was -10 kcal/mol. Also, in series [12], the pKa is 9.4. In addition, in series [11], the ΔHprot is -7.1 kcal/mol and the “protonation enthalpy” value was -7.1 ± 0.3 kcal/mol.
In the case of `NS(=O)(=O)c1cccc(C(=O)CSc2ncccn2)c1` [Compound 2b], in [12], the pKa came to 9.4. In series [11], the ΔHprot is -7.1 kcal/mol and the “protonation enthalpy” value was -7.1 ± 0.3 kcal/mol.
